{"source": "paper PMC8825254", "about": "“Rational design of Striga hermonthica-specific seed germination inhibitors” (Plant Physiology, 2021)", "key": {"[1]": {"tested_on": "ShHTL7–ShMAX2-CTH interaction", "experiment": "GST pull-down of His-ShHTL7 by CTH of ShMAX2", "assay_type": "binding, Striga hermonthica", "details": "100 µM compound, 100 µM GR24; result in words", "method": "Purified GST-CTH of ShMAX2 and GST were bound to the Glutathione Sepharose 4B Beads (GE healthcare). Purified 6× His-ShHTL7 was incubated with 100 μM KK023-N1 and Triton X-100 for 3 h, separately. Then apo ShHTL7 was added to the beads bound by GST-CTH of ShMAX2 in the presence and absence of 100 μM GR24. Similarly, ShHTL7 incubated with KK023-N1 and Triton X-100 were added to the beads bound by GST-CTH of ShMAX2 in the presence of 100 μM GR24. Apo ShHTL7 was added to the beads bound by GST only in the presence of 100 μM GR24 as a control. All the samples were washed with lysis buffer (50-mM Tris–HCl pH 8.0, 200 mM NaCl, 2 mM DTT) three times and then eluted with addition of 20 mM reduced glutathione. Thus, the eluted protein was subjected to Western blot using an antibody specific to 6XHis (Abcam, Cambridge, UK)."}, "[2]": {"tested_on": "Rice WT (cv Nipponbare) seedlings", "experiment": "Rice micro tillering assay, WT, hydroponics", "assay_type": "in vivo, rice (Oryza sativa)", "details": "10, 50 and 100 µM, 2 weeks, result in words", "method": "(§1) Rice seeds of WT (cv Nipponbare) or SL-deficient mutant (d17), were surface sterilized with 2.5% NaClO and 0.05% of Tween-20 for 10 min, and rinsed 6 times with sterilized MilliQ water. About 30 seeds were placed on sterilized Magenta GA-7 plant culture box containing 0.5% MS medium with 0.4% agar and incubated at 30°C in dark. After 2 d, boxes were moved to a growth chamber and allowed to grow for another 5 d under fluorescent white light (130–180 μM m^−2 s^−1). Equally grown seedlings were transplanted in 50-mL black tubes filled with Hoagland nutrient solution (1 seedling/tube). Seedlings were treated with 10, 50, and 100 µM of each compound (KK023-N1, Triton X-100, and KK094). The compounds were applied twice a week for 2 weeks to test their effects on the growth of WT plants. SL-deficient seedlings (d17) were treated as WT but with the addition of 1 µM GR24. Number of tillers per plant, plant height, and dry biomass were measured at final harvest."}, "ShHTL5": {"biological_target": "ShHTL5 (Striga hermonthica, UniProt A0A0M5I297)", "sequence (A0A0M5I297 entry or part of it)": "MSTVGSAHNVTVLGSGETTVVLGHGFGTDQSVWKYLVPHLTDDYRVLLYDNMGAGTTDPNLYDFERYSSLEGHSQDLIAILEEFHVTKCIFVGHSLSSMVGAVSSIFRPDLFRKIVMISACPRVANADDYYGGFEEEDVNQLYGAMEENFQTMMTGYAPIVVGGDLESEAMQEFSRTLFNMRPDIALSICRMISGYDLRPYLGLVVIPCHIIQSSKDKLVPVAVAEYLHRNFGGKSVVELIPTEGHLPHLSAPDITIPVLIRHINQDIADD", "experiment": "YLG hydrolysis competition assay with ShHTL5", "assay_type": "biochemical"}, "OsD14": {"biological_target": "T1, OsD14 (Oryza sativa subsp. japonica, UniProt Q10QA5)", "T1 construct": "made in house; host or cells: Escherichia coli BL21 (DE3)", "T1 sequence (Q10QA5 1-318)": "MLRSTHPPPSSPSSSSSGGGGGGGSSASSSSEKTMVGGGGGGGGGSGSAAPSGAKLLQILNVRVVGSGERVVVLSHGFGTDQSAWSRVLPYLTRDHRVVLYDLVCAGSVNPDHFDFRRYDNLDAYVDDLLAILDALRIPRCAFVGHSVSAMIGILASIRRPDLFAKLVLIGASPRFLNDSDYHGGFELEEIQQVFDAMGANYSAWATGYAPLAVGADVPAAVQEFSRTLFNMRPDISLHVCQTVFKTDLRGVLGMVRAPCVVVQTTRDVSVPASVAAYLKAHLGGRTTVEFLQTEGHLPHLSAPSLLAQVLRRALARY", "experiment": "YLG hydrolysis competition assay with OsD14", "assay_type": "biochemical, rice (Oryza sativa)", "details": "Figure 3D-F; mean ± SD, n = 3; no unit printed with values (x-axis µM); read-out: IC50, OsD14-mediated YLG hydrolysis (Figure 3)"}, "ShHTL7": {"biological_target": "T2, ShHTL7 (Striga hermonthica, UniProt A0A0M3PNA2)", "T2 sequence (A0A0M3PNA2 1-271)": "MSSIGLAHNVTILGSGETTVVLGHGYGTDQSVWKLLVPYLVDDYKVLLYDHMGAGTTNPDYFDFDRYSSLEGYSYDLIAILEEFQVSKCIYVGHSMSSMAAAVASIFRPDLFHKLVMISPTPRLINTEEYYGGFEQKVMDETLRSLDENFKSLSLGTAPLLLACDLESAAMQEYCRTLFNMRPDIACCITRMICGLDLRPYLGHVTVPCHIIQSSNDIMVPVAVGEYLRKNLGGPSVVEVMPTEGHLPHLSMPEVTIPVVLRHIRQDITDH", "experiment": "YLG hydrolysis competition assay with ShHTL7", "assay_type": "biochemical", "method": "About 0.33 µM of ShHTL7 protein was used to conduct in vitro hydrolysis of YLG (1 µM) as a substrate in a total volume of 100 µL of phosphate-buffered saline (1× PBS) containing 0.1% DMSO in 96-well black plate (Greiner Kremsmünster, Austria; [Tsuchiya et al., 2015]). The hydrolysis of YLG over time and changes in the fluorescence intensity was measured by SpectraMax i3 (Molecular Devices, San Jose, CA, USA) using an excitation wavelength of 480 nm and detection wavelength of 520 nm and recorded at 10 min intervals for 2 h. YLG in 1× PBS without protein was used as a control. […] Measurement of the fluorescence was conducted in SpectraMax i3 (Molecular Devices) using the above-mentioned method. The relative fluorescence unit was calculated by subtracting the auto-fluorescence of YLG in the buffer from the fluorescence values of YLG in the presence of a protein. The inhibitory curve and IC50 were determined using https://www.aatbio.com/tools/ic50-calculator website."}, "Rice d17 seedlings": {"tested_on": "Rice d17 seedlings", "experiment": "Rice micro tillering assay, SL-deficient mutant d17 with GR24", "assay_type": "in vivo, rice (Oryza sativa)", "details": "compound with 1.0 µM GR24; result in words", "method": "as §1"}, "Striga hermonthica": {"tested_on": "Striga hermonthica", "experiment": "Striga emergence study in infested rice pots under greenhouse conditions", "assay_type": "in vivo, Striga hermonthica on rice cv IAC165", "details": "for Striga emergence, average number: twice per week for 4 weeks, 10 weeks after rice planting, mock 26 per pot; for Change in Striga emergence compared to mock: Figure 10B; for Rice plant height, change: Striga-infested pots, Figure 10C", "method": "Approximately 6,000 Striga seeds (20 mg) were weighed, mixed with sand/soil mixture (1:2 ratio), and put into a 3-L perforated plastic pot containing 0.5-L clean sand/soil mixture in the bottom. The pots were kept under greenhouse-controlled conditions at 30°C and kept moist with water for Striga preconditioning for 10 d. Formulated KK023-N1 and Triton X-100 were applied (at 100 mL per pot) at 10 and 100 µM concentration. Then three rice seedlings (cv IAC165, 10 d old) were planted in each pot after 24 h of inhibitor application. All the treatments were applied continuously twice per week for 4 weeks. Water with same amount of solvent (Cyclohexanone+Atlas-G) was used as a control. Pots were irrigated with 200 mL of Hoagland’s nutrient solution with low phosphate (4 µM) when needed. The rice plants were allowed to grow under greenhouse conditions for 10 weeks and the emerged Striga plants were counted from each pot. The height of rice plants was also measured to see impact of Striga infestation on host growth."}}}
{"smiles": "COc1ccc(CCCc2cccc3c2CCN3C(=O)n2ccnn2)cc1", "note": "[KK023-N1]", "values": [{"measurement": "Effect on GR24-dependent pull-down of His-ShHTL7 by GST-CTH of ShMAX2", "setting": "[1]", "value": "could inhibit such interaction"}, {"measurement": "Effect on dry biomass of WT rice", "setting": "[2]", "value": "except at 100 µM concentration that led to a reduction in biomass"}, {"measurement": "Effect on plant height of WT rice", "setting": "[2]", "value": "did not observe any significant negative impact"}, {"measurement": "Effect on tillering of WT rice", "setting": "[2]", "value": "did not observe any significant negative impact"}, {"measurement": "inhibition at 50 µM", "setting": "ShHTL5; 1 h, 50 µM compound, read-out: Reduction of ShHTL5 hydrolysis activity", "value": 20, "unit": "%"}, {"measurement": "IC50", "setting": "ShHTL5; read-out: IC50, ShHTL5-mediated YLG hydrolysis", "value": "> 50", "unit": "µM"}, {"measurement": "Effect on YLG hydrolysis by ShHTL5", "setting": "ShHTL5; result in words", "value": "did not influence the YLG hydrolysis"}, {"measurement": "IC50", "setting": "OsD14", "value": "29.6 ± 3.77", "unit": "µM"}, {"measurement": "IC50", "setting": "ShHTL7", "value": 1.78, "unit": "µM"}, {"measurement": "Effect on GR24 action on tillering of d17 rice", "setting": "Rice d17 seedlings", "value": "did not block the GR24 effect on rice tillers"}, {"measurement": "Striga emergence, average number", "setting": "Striga hermonthica; 10 µM", "value": 20, "unit": "Striga plants per pot"}, {"measurement": "Change in Striga emergence compared to mock", "setting": "Striga hermonthica; 10 µM", "value": -24, "unit": "%"}, {"measurement": "Rice plant height, change", "setting": "Striga hermonthica; 10 µM", "value": "+17%"}, {"measurement": "Striga emergence, average number", "setting": "Striga hermonthica; 100 µM", "value": 16, "unit": "Striga plants per pot"}, {"measurement": "Change in Striga emergence compared to mock", "setting": "Striga hermonthica; 100 µM", "value": 38, "unit": "%"}, {"measurement": "Rice plant height, change", "setting": "Striga hermonthica; 100 µM", "value": "+26%"}]}
